Reference: patent US5099015A, “Trifluoromethyl 1-carba(1-dethia)cephems” (Eli Lilly and Company, priority 1991, dated 1992)
Converted amounts (≈) assume the structure as drawn. Like-named read-outs stand apart in the source and are kept apart here.

How the values were obtained:
Experiment in all cases: Agar dilution antibacterial test (MIC)
Format in all cases: cell-based
[1] = test system: Staphylococcus epidermidis 222
Method: (§1) Fresh overnight cultures of test bacteria were diluted to approximately 1x(10)4 cells/microliter and applied in one microliter volumes to the surfaces of the agar plates. The innoculated plates were incubated overnight at 35° C. in ambient air. Minimum inhibitory concentration (mic) endpoints were recorded as the lowest antibiotic concentrations in micrograms per milliliter that inhibited the development of visible growth on the plates. The following summarizes the results of such tests with the compounds of the examples listed above.

[2] = test system: Enterobacter cloacae EB5
Method: as §1

[3] = test system: Shig sonn. N9
Method: as §1

[4] = test system: Staphylococcus pneumoniae Park 1
Method: as §1

[5] = test system: Acom AC12
Method: as §1

[6] = test system: Serratia SE3
Method: as §1

[7] = test system: Serratia X99
Method: as §1

[8] = test system: Enterobacter aerogenes EB17
Method: as §1

[9] = test system: Staphylococcus pyogenes C203; settings: read-out: MIC
Method: as §1

[10] = test system: Escherichia coli TEM
Method: as §1

[11] = test system: Staphylococcus epidermidis EPI270
Method: as §1

[12] = test system: Haemophilus influenzae 76; settings: read-out: MIC
Method: as §1

[13] = test system: Klebsiella pneumoniae KAE
Method: as §1

[14] = test system: Enterococcus faecium X66
Method: as §1

[15] = test system: Escherichia coli EC14
Method: as §1

[16] = test system: Salmonella X514
Method: as §1

[17] = test system: Staphylococcus aureus NRRL X1.1
Method: as §1

[18] = test system: Proteus rett C24; settings: Proteus rett C24
Method: as §1

[19] = test system: Morg morg PR15
Method: as §1

[20] = test system: Escherichia coli N10
Method: as §1

[21] = test system: Haemophilus influenzae C.L.; settings: read-out: MIC
Method: as §1

[22] = test system: Klebsiella pneumoniae X26
Method: as §1

[23] = test system: Staphylococcus aureus V41
Method: as §1

[24] = test system: Citro CF17
Method: as §1

[25] = test system: Enterobacter cloacae 265A
Method: as §1

[26] = test system: Staphylococcus aureus X400
Method: as §1

[27] = test system: Enterobacter aerogenes C32
Method: as §1

[28] = test system: Salmonella 1335
Method: as §1

[29] = test system: Proteus incon PR33
Method: as §1

[30] = test system: Enterococcus faecalis 2041
Method: as §1

[31] = test system: Staphylococcus aureus S13E
Method: as §1

[32] = test system: Klebsiella pneumoniae X68
Method: as §1

[33] = Klebsiella aerogenes, read-out: MIC

Molecule N[C@@H](C(=O)N[C@@H]1C(=O)N2C(C(=O)O)=C(C(F)(F)F)CC[C@H]12)c1ccc(O)cc1 [Compound 2, [6R,7S]-7β-[D-α-(amino)-4-hydroxyphenylacetylamino]-3-trifluoromethyl-1-carba-1-dethia-3-cephem-4-carboxylic acid] has an MIC ([1]; read-out: MIC) of 2.2 µg/mL (≈ 5.51 µM), an MIC ([2]; read-out: MIC) of 4.3 µg/mL (≈ 10.8 µM) and an MIC ([3]; read-out: MIC) of 0.58 µg/mL (≈ 1.45 µM). It also gave an MIC ([4]; PARK1, read-out: MIC) of 0.2 µg/mL (≈ 0.501 µM), an MIC ([5]; read-out: MIC) of 21.3 µg/mL (≈ 53.3 µM) and an MIC ([6]; read-out: MIC) of 16 µg/mL (≈ 40.1 µM). It also gave an MIC ([7]; read-out: MIC) of 4.7 µg/mL (≈ 11.8 µM), an MIC [8, 33] of 1.83 µg/mL (≈ 4.58 µM) and an MIC [9] of 0.025 µg/mL (≈ 0.0626 µM). The MIC ([10]; read-out: MIC) was 0.75 µg/mL (≈ 1.88 µM), the MIC ([11]; read-out: MIC) was 4.4 µg/mL (≈ 11 µM) and the MIC [12] was 0.9 µg/mL (≈ 2.25 µM). The MIC ([13]; read-out: MIC) was 2.3 µg/mL (≈ 5.76 µM), the MIC ([14]; read-out: MIC) was 32 µg/mL (≈ 80.1 µM) and the MIC ([15]; read-out: MIC) was 0.48 µg/mL (≈ 1.2 µM). It also gave an MIC ([16]; read-out: MIC) of 0.19 µg/mL (≈ 0.476 µM), an MIC ([17]; NRRLX1.1, read-out: MIC) of 0.85 µg/mL (≈ 2.13 µM) and an MIC ([18]; read-out: MIC) of 6.7 µg/mL (≈ 16.8 µM). The MIC ([19]; read-out: MIC) was 26.7 µg/mL (≈ 66.9 µM), the MIC ([20]; read-out: MIC) was 0.85 µg/mL (≈ 2.13 µM) and the MIC [21] was 0.7 µg/mL (≈ 1.75 µM). It also gave an MIC ([22]; read-out: MIC) of 0.3 µg/mL (≈ 0.751 µM), an MIC ([23]; read-out: MIC) of 7.2 µg/mL (≈ 18 µM) and an MIC ([24]; read-out: MIC) of 5.3 µg/mL (≈ 13.3 µM). It also gave an MIC ([25]; read-out: MIC) of 2.3 µg/mL (≈ 5.76 µM), an MIC ([26]; read-out: MIC) of 102 µg/mL (≈ 255 µM) and an MIC [27, 33] of 2.08 µg/mL (≈ 5.21 µM). The MIC ([28]; read-out: MIC) was 0.58 µg/mL (≈ 1.45 µM), the MIC ([29]; read-out: MIC) was 2.3 µg/mL (≈ 5.76 µM) and the MIC ([30]; read-out: MIC) was 22.4 µg/mL (≈ 56.1 µM). For the same molecule, the MIC [31] was 70.4 µg/mL (≈ 176 µM) and the MIC ([32]; read-out: MIC) was 0.6 µg/mL (≈ 1.5 µM).
For Nc1nc(C(=NO)C(=O)N[C@@H]2C(=O)N3C(C(=O)O)=C(C(F)(F)F)CC[C@H]23)cs1 [Compound 5], the MIC [1] was 1 µg/mL (≈ 2.38 µM), the MIC [2] was “.125 µg/mL” and the MIC [3] was “.06 µg/mL”. The MIC [4] was “.015 µg/mL”, the MIC [5] was 2 µg/mL (≈ 4.77 µM) and the MIC [6] was 8 µg/mL (≈ 19.1 µM). The MIC [7] was “.5 µg/mL”, the MIC [8] was “.06 µg/mL” and the MIC [10] was “.03 µg/mL”. For the same molecule, the MIC [11] was 4 µg/mL (≈ 9.54 µM), the MIC [13] was “.06 µg/mL” and the MIC [14] was 8 µg/mL (≈ 19.1 µM). For the same molecule, the MIC [15] was “.03 µg/mL”, the MIC [16] was “.015 µg/mL” and the MIC [17] was 1 µg/mL (≈ 2.38 µM). For the same molecule, the MIC [18] was “.125 µg/mL”, the MIC [19] was 2 µg/mL (≈ 4.77 µM) and the MIC [20] was “.125 µg/mL”. The MIC [22] was “.015 µg/mL”, the MIC [23] was 2 µg/mL (≈ 4.77 µM) and the MIC [24] was 16 µg/mL (≈ 38.2 µM). For the same molecule, the MIC [25] was 16 µg/mL (≈ 38.2 µM), the MIC [26] was 8 µg/mL (≈ 19.1 µM) and the MIC [27] was “.25 µg/mL”. For the same molecule, the MIC [28] was “.06 µg/mL”, the MIC [29] was “.25 µg/mL” and the MIC [30] was 1 µg/mL (≈ 2.38 µM). The MIC [31] was 4 µg/mL (≈ 9.54 µM) and the MIC [32] was “.06 µg/mL”.
